Reference: PubChem BioAssay AID1259407 (Chemical Carcinogenesis Research Information System (CCRIS), 2018)
Activity calls are given as the source filed them. How the calls were made is not given here.

Tested on: CCRIS mutagenicity, Ames/micronucleus/aberration tests
Experiment: CCRIS mutagenicity studies
[1] = Test System: AMES SALMONELLA TYPHIMURIUM, Strain/Indicator: TA100, Metabolic Activation: NONE, Method: STANDARD PLATE
[2] = Test System: AMES SALMONELLA TYPHIMURIUM, Strain/Indicator: TA98, Metabolic Activation: NONE, Method: STANDARD PLATE
[3] = Test System: AMES SALMONELLA TYPHIMURIUM, Strain/Indicator: TA98, Metabolic Activation: RAT, LIVER, S-9, AROCLOR 1254, Method: STANDARD PLATE
[4] = Test System: AMES SALMONELLA TYPHIMURIUM, Strain/Indicator: TA100, Metabolic Activation: RAT, LIVER, S-9, AROCLOR 1254, Method: STANDARD PLATE
[5] = Test System: AMES SALMONELLA TYPHIMURIUM, Strain/Indicator: TA102, Metabolic Activation: NONE, Method: STANDARD PLATE
[6] = Test System: AMES SALMONELLA TYPHIMURIUM, Strain/Indicator: TA102, Metabolic Activation: RAT, LIVER, S-9, AROCLOR 1254, Method: STANDARD PLATE

O=C1C(Cl)=C(Cl)C(=O)C1(Cl)Cl
mutagenic call [1]: inactive; negative

CC1=C(/C=C/C(C)=C/C=C/C(C)=C/C=C/C=C(C)/C=C/C=C(C)/C=C/C2=C(C)C(=O)CCC2(C)C)C(C)(C)CCC1=O
mutagenic call [2]: inactive; negative | mutagenic call [3]: inactive; negative | mutagenic call [1]: inactive; negative | mutagenic call [4]: inactive; negative

CCN(CC)CCNC(=O)c1cc(Cl)c(N)cc1OC
mutagenic call (Test System: CHINESE HAMSTER V-79, Strain/Indicator: V-79 (HGPRT)/6-THIOGUANINE, Metabolic Activation: NONE): active; positive | mutagenic call (Test System: UDS HUMAN HEPATOCYTES, Strain/Indicator: THY INCORP, Metabolic Activation: NONE, Method: AUTORADIOGRAPHY): inactive; negative | mutagenic call (Test System: UDS RAT HEPATOCYTES, Strain/Indicator: THY INCORP, Metabolic Activation: NONE, Method: AUTORADIOGRAPHY): inactive; negative

Fc1cc2cccnc2c(F)c1F
mutagenic call (Test System: AMES SALMONELLA TYPHIMURIUM, Strain/Indicator: TA100, Metabolic Activation: RAT LIVER S-9, PHENOBARBITAL AND 5,6-BENZOFLAVONE, Method: PREINCUBATION): inactive; negative

CCOCC(=O)O
mutagenic call (Test System: AMES SALMONELLA TYPHIMURIUM, Strain/Indicator: TA97A, Metabolic Activation: NONE, Method: STANDARD PLATE): inactive; negative | mutagenic call (Test System: AMES SALMONELLA TYPHIMURIUM, Strain/Indicator: TA97A, Metabolic Activation: RAT, LIVER, S-9, AROCLOR 1254, Method: STANDARD PLATE): inactive; negative | mutagenic call [2]: inactive; negative | mutagenic call [3]: inactive; negative | mutagenic call [1]: inactive; negative | mutagenic call [4]: inactive; negative | mutagenic call [5]: inactive; negative | mutagenic call [6]: inactive; negative

O=[N+]([O-])c1ccc(NCCO)c(OCCO)c1
mutagenic call (Test System: AMES SALMONELLA TYPHIMURIUM, Strain/Indicator: TA98, Metabolic Activation: HAMSTER, LIVER, S-9, AROCLOR 1254 (10%), Method: PREINCUBATION): active; positive | mutagenic call (Test System: AMES SALMONELLA TYPHIMURIUM, Strain/Indicator: TA98, Metabolic Activation: NONE, Method: PREINCUBATION): active; positive | mutagenic call (Test System: AMES SALMONELLA TYPHIMURIUM, Strain/Indicator: TA98, Metabolic Activation: RAT, LIVER, S-9, AROCLOR 1254 (10%), Method: PREINCUBATION): active; positive | mutagenic call (Test System: AMES SALMONELLA TYPHIMURIUM, Strain/Indicator: TA100, Metabolic Activation: HAMSTER, LIVER, S-9, AROCLOR 1254 (10%), Method: PREINCUBATION): active; positive | mutagenic call (Test System: AMES SALMONELLA TYPHIMURIUM, Strain/Indicator: TA100, Metabolic Activation: NONE, Method: PREINCUBATION): active; positive | mutagenic call (Test System: AMES SALMONELLA TYPHIMURIUM, Strain/Indicator: TA100, Metabolic Activation: RAT, LIVER, S-9, AROCLOR 1254 (10%), Method: PREINCUBATION): active; positive | mutagenic call (Test System: AMES SALMONELLA TYPHIMURIUM, Strain/Indicator: TA1535, Metabolic Activation: HAMSTER, LIVER, S-9, AROCLOR 1254 (10%), Method: PREINCUBATION): inactive; negative | mutagenic call (Test System: AMES SALMONELLA TYPHIMURIUM, Strain/Indicator: TA1535, Metabolic Activation: NONE, Method: PREINCUBATION): active; positive | mutagenic call (Test System: AMES SALMONELLA TYPHIMURIUM, Strain/Indicator: TA1535, Metabolic Activation: RAT, LIVER, S-9, AROCLOR 1254 (10%), Method: PREINCUBATION): inactive; negative | mutagenic call (Test System: AMES SALMONELLA TYPHIMURIUM, Strain/Indicator: TA1537, Metabolic Activation: HAMSTER, LIVER, S-9, AROCLOR 1254 (10%), Method: PREINCUBATION): active; positive | mutagenic call (Test System: AMES SALMONELLA TYPHIMURIUM, Strain/Indicator: TA1537, Metabolic Activation: NONE, Method: PREINCUBATION): active; positive | mutagenic call (Test System: AMES SALMONELLA TYPHIMURIUM, Strain/Indicator: TA1537, Metabolic Activation: RAT, LIVER, S-9, AROCLOR 1254 (10%), Method: PREINCUBATION): active; positive

CCC(CCC(C)=O)COC(=O)CCCCC(=O)O (stereo unspecified)
mutagenic call (Test System: AMES SALMONELLA TYPHIMURIUM, Strain/Indicator: TA97, Metabolic Activation: NONE, Method: STANDARD PLATE): inactive; negative | mutagenic call (Test System: AMES SALMONELLA TYPHIMURIUM, Strain/Indicator: TA97, Metabolic Activation: RAT, LIVER, S-9, AROCLOR 1254, Method: STANDARD PLATE): inactive; negative | mutagenic call (Test System: AMES SALMONELLA TYPHIMURIUM, Strain/Indicator: TA97, Metabolic Activation: RAT, LIVER, S-9, DI(2-ETHYLHEXYL)PHTHALATE, Method: STANDARD PLATE): inactive; negative | mutagenic call [2]: inactive; negative | mutagenic call [3]: inactive; negative | mutagenic call (Test System: AMES SALMONELLA TYPHIMURIUM, Strain/Indicator: TA98, Metabolic Activation: RAT, LIVER, S-9, DI(2-ETHYLHEXYL)PHTHALATE, Method: STANDARD PLATE): inactive; negative | mutagenic call [1]: inactive; negative | mutagenic call [4]: inactive; negative | mutagenic call (Test System: AMES SALMONELLA TYPHIMURIUM, Strain/Indicator: TA100, Metabolic Activation: RAT, LIVER, S-9, DI(2-ETHYLHEXYL)PHTHALATE, Method: STANDARD PLATE): inactive; negative | mutagenic call [5]: inactive; negative | mutagenic call [6]: inactive; negative | mutagenic call (Test System: AMES SALMONELLA TYPHIMURIUM, Strain/Indicator: TA102, Metabolic Activation: RAT, LIVER, S-9, DI(2-ETHYLHEXYL)PHTHALATE, Method: STANDARD PLATE): inactive; negative

Cl/C=C(\Cl)COCCCl
mutagenic call (Test System: AMES SALMONELLA TYPHIMURIUM, Strain/Indicator: TA100, Metabolic Activation: RAT, LIVER, S-9, 3-METHYLCHOLANTHRENE, Method: STANDARD PLATE): inactive; negative | mutagenic call [4]: active; positive | mutagenic call (Test System: AMES SALMONELLA TYPHIMURIUM, Strain/Indicator: TA100, Metabolic Activation: RAT, LIVER, S-9, PHENOBARBITAL, Method: STANDARD PLATE): active; positive | mutagenic call (Test System: AMES SALMONELLA TYPHIMURIUM, Strain/Indicator: TA100, Metabolic Activation: RAT, LIVER, S-9, Method: STANDARD PLATE): inactive; negative

O=c1cccc2cc(O)c(O)c(O)c2c1O
mutagenic call (Test System: AMES SALMONELLA TYPHIMURIUM, Strain/Indicator: TA2638, Metabolic Activation: S-9, Method: STANDARD PLATE): inactive; negative
